{"source": "patent US20170258924A1", "about": "“Ester of a Phospholipid With Conjugated Linoleic Acid for the Treatment of Psychiatric Disorders With Neuroinflammatory and Neurodegenerative Basis” (UNIVERSITA' DEGLI STUDI DI CAGLIARI, priority 2014, published 2017)", "key": {"rat brain slices": {"test_system": "rat brain slices", "experiment": "ex vivo incubation of rat brain slices, levels of PEA and OEA", "type": "cell-based", "conditions": "rat brain slices incubated ex vivo for 15, 30 or 60 min; FIG. 1", "text": "The values, mean and DS, are expressed as molar % of the total fatty acids. Different letters indicate significant differences (p<0.05); the One-way ANOVA statistical analysis was used, with Tukey test for post-hoc analysis. Similar results were obtained by using pure (99%) c9,t11 isomer.\n(§1) The methods employed for the analysis of the levels of conjugated linoleic acid, PEA and OEA in vivo and in vitro are described in detail in (Melis et al. 2001) and in (Piscitelli et al. 2011), respectively.\nOn the contrary, WY14643 (WY), a synthetic agonist of PPAR alpha used as a comparison since it is an inductor of PPAR alpha, increases the levels of PEA and OEA by about 3-4 times (FIG. 1B)."}, "TNF alpha in astrocytes": {"test_system": "TNF alpha in astrocytes", "experiment": "TNF alpha in cultures of astrocytes after induced neuroinflammation with LPS", "type": "cell-based", "conditions": "treatment then LPS, oleic acid as control, p<0.05, FIG. 3", "text": "(§2) Since astrocytes are involved in neuroinflammation, the action of CLA (80% c9,t11 isomer) was also verified in cultures of astrocytes after having induced neuroinflammation with LPS. Oleic acid was used as a control."}, "TNF alpha in microglia": {"test_system": "TNF alpha in microglia", "experiment": "TNF alpha in microglia in vitro", "type": "cell-based", "text": "The PEA and OEA increase, since it sustains PPAR alpha activation, is crucial for the physiologic response to neuroinflammatory events, in addition to preserving the homeostasis of the dopaminergic system. In fact, CLA can reduce in vitro the levels of TNF alpha in both astrocytes and microglia."}, "frontal cortex of mice": {"test_system": "frontal cortex of mice", "experiment": "in vivo administration to mice, levels of OEA in the frontal cortex", "conditions": "acute administration 12 hours prior to sacrifice, FIG. 2", "text": "The values, mean and DS, are expressed as pmoles/g tissue. Different letters indicate significant differences (p<0.05); the One-way ANOVA statistical analysis was used, with Tukey test for post-hoc analysis.\nas §1, §2"}}}
{"compound": "conjugated linoleic acid [CLA (80% c9,t11 isomer)]", "values": [{"measurement": "increase of the levels of OEA", "setting": "rat brain slices", "result": "about 5 times"}, {"measurement": "increase of the levels of PEA", "setting": "rat brain slices", "result": "about 5 times"}, {"measurement": "TNF alpha in cultured astrocytes", "setting": "TNF alpha in astrocytes", "result": "significant decrease"}, {"measurement": "TNF alpha in cultured astrocytes", "setting": "TNF alpha in astrocytes; listed as CLA", "result": "reduce"}, {"measurement": "levels of TNF alpha in microglia", "setting": "TNF alpha in microglia", "result": "reduce"}, {"measurement": "levels of OEA in the frontal cortex", "setting": "frontal cortex of mice", "result": "significantly increases"}]}
{"compound": "Cc1cccc(Nc2cc(Cl)nc(SCC(=O)O)n2)c1C", "note": "[WY14643, reference compound]", "values": [{"measurement": "increase of the levels of OEA", "setting": "rat brain slices", "result": "3-4 times"}, {"measurement": "increase of the levels of PEA", "setting": "rat brain slices", "result": "3-4 times"}]}
